The values that follow come from patent publication US20190380964A1, “METHODS AND COMPOSITIONS FOR MAKING AND USING NANOTHERAPEUTIC DRUG DELIVERY VEHICLES” (GEORGE MASON UNIVERSITY, priority 2018, published 2019).

Experiment [1] has as its system MDA-MB-231 cells. The following applies: concentration at which DXR liposomal carriers were introduced; read-out: EC-50 of DXR; cited from earlier work.
Experiment [2] has as its system MDA-MB-231 cells. Kind of experiment: WST-1 proliferation / viability of MDA-MB-231 cells exposed to targeted DXR liposomes. The class given is cell-based. The following applies: 8 or 24 hours exposure, evaluated over 3 days. As to the method:
In an alternate embodiment, MDA-MB-231 cells were grown in DMEM containing 10% FBS and 1× Penicillin-Streptomycin solution. The cells were cultured at 70% confluence and plated in a 96 well plate at a density of 5×10^4 cells/well. The cells were incubated undisturbed for two days prior to any experimentation. Liposomal suspensions were UV sterilized prior to introduction to cell cultures. On the second day, the liposomal carriers containing DXR were introduced to the cultures at the EC-50 of DXR (0.01 μM21). Proliferating cells were quantified and normalized by the control using WST-1 proliferation assay.
Liposomes were incubated with DXR (17.2 mM) and DSPE-PEG-MAL (0.1 mol %) for 1 hour. The suspension was then purified using spin columns and incubated overnight with CD44 antibodies as described in the methods. Targeted liposomes were introduced to cultures of MDA-MB-231 cells and allowed to interact for 8 hours or 24 hours prior to being washed. […] Viability was analyzed over 72 hours using WST-1 as an indicator of proliferation and normalized to a media only control (e.g., as is illustrated in FIG. 8D).
(In general: Formazan colour is commonly taken as a measure of viable cells.)

For the compound `COc1cccc2c1C(=O)c1c(O)c3c(c(O)c1C2=O)C[C@@](O)(C(=O)CO)C[C@@H]3O[C@H]1C[C@H](N)[C@H](O)[C@H](C)O1` [DXR, doxorubicin], the EC50 in experiment [1] is 10 nM. Moreover, the “cancer cell viability (result in words, FIG. 8D)” value in experiment [2] is given as “demonstrated efficacy in reducing cancer cell viability”.
